According to patent US8993527B2, “Methods, compositions, and formulations for preventing or reducing adverse effects in a patient” (Pericor Therapeutics, Inc., priority 2005, dated 2015):
Structures can show the parent of a compound that is named as a salt.

Experiments:
[1] = target: T1, calf intestinal musosa adenosine deaminase (Bos taurus, UniProt P56658); assay: Adenosine deaminase activity; format: biochemical; details: 80 μM adenosine, 10 minutes at 37° C.
T1 construct: 0.002 units of calf intestinal musosa adenosine deaminase; from tissue; host or cells: calf intestinal mucosa
Method: Different concentrations of the test compounds were incubated in the assay mixture for 10 minutes at 37° C. The reaction was monitored continuously for oxidation of NADH from the change in absorbance at 340 nm.

[2] = tested on: AMP deaminase; assay: Inhibition of AMP deaminase (14C-AMP to 14C-IMP); format: biochemical, human; details: 200 μM of each ribotide
Method: The phosphorylated forms are referred to as AICA ribotide and ribavirin monophosphate, respectively. Using 200 μM of each ribotide, AMP deaminase was inhibited 38% and 54%, respectively.

[3] = tested on: granulocytes and endothelial cells; assay: Granulocyte/endothelial cell interaction, intravital microscopy of mesentery microvessels; format: in vivo, rat; details: superfusion with 20 μM, approximately 2 μM in the vessel
Method: The parameter measured was the fracture stress between the two cell types.
These studies were performed by intravital microscopy filming of granulocytes in rat mesentary microvessels. The rolling velocity of granulocytes compared to the streaming velocity of red cells was calculated before and after the administration of adenosine.

[4] = target: T2, NBTI-specific adenosine transport site (UniProt O54698); assay: [3H]-NBTI binding assay; details: read-out: ED50 (50% displacement of bound [3H]-NBTI); 0.5 mg neuronal membrane protein, 0.5 nM [3H]-NBTI, 30 minutes
T2 sequence (O54698 1-457): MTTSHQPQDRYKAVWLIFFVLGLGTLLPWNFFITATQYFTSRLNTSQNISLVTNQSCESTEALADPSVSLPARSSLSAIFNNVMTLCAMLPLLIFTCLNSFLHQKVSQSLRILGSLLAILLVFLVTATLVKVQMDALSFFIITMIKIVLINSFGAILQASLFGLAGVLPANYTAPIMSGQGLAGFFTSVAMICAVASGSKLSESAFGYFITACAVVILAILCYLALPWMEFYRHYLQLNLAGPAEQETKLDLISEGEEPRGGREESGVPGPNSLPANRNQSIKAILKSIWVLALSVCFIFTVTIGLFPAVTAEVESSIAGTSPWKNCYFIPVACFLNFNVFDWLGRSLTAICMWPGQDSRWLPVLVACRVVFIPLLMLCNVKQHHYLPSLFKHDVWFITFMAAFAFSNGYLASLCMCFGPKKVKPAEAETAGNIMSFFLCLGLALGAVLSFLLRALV
Method: Increasing concentrations of the test compounds were incubated for 30 minutes with 0.5 mg neuronal membrane protein together with 0.5 nM [^3 H]-NBTI in a Tris buffer (pH 7.4) at room temperature. The assays were quenched and membranes collected by rapid filtration. Filters were then solubilized and radioactivity determined by scintillation counting.

[5] = tested on: brain ischemia; assay: Gerbil stroke model: hippocampal pyramidal cell survival; format: in vivo; details: pretreatment with 500 mg/kg (FIG. 21)
Method: Ischemia was then induced by bilateral occlusion of both common carotid arteries for 5 minutes. Seven days following the ischemic insult, brains were removed and processed for histology.

[6] = tested on: longitudinal muscle from the guinea pig ileum; assay: Inhibition of stimulated contraction in isolated ileum; details: electrically stimulated guinea pig ileum muscle
Text: These are detailed in Table II.

[7] = tested on: ischemic rat hearts; assay: Rat heart ischemia model: tissue adenosine levels; format: in vivo
Method: Male rats were injected intraperitonealy with either the AICA riboside analog, AICA riboside or saline, as a control. After 60 minutes, the hearts were excised and incubated at 37° C. for a further 60 minutes. Tissue extracts were prepared and analyzed for adenosine by high performance liquid chromatography (HPLC).

[8] = tested on: coronary endothelial cells; assay: Inhibition of adenosine utilization in cell culture; format: cell-based; details: Endothelial cell, 1 μM [3H] adenosine, 15 minutes
Method: In this assay, endothelial cells were incubated with 5 μM or 50 μM of the test compound together with 1 μM [^3H] adenosine for 15 minutes. Inhibition of adenosine utilization was determined by measuring the concentration of extracellular adenosine by scintillation counting following separation by thin layer chromatography (TLC).

[9] = tested on: platelet aggregation in human whole blood; assay: Inhibition of platelet aggregation in human whole blood; format: cell-based; details: Homo sapiens, Platelet, 10 min, 10 minutes at 37° C., 10 µM adenosine added, ADP (6-25 μM)
Method: Whole blood was drawn from healthy donors and collected in 0.1 vol. of sodium citrate to prevent coagulation. Platelet aggregation was measured by the impedance technique using a Whole Blood Aggregometer. The test compounds were incubated in whole blood for 10 minutes at 37° C. and 10 µM adenosine was added 5 minutes before eliciting aggregation. Aggregation was induced by addition of ADP (6-25 μM) at the minimum concentration inducing full aggregation in untreated controls.

[10] = Oral bioavailability and half-life in fasted adult beagles; format: in vivo, dog; details: beagle, dog, in vivo
Method: Heparinized blood and urine were collected at selected intervals over 24 hours. Each sample was chilled, centrifuged at 4° C. and frozen prior to HPLC analysis.

[11] = tested on: demand-induced ischemia; assay: Canine model of stable angina (repeated pacing with LAD stenosis); format: in vivo, dog
Method: Anesthetized male dogs were instrumented to measure regional myocardial wall thickening during right atrial pacing in the presence of a stenosis of the left anterior descending artery (Young & Mullane Am. J. Physiol. in press (1991)). In Table XIA, the effects on wall thickening and arterial pressure of six repeated episodes of pacing in animals treated with a continuous IV infusion of 50 μg/kg/min of the test compound administered post-pace #1 are compared with saline-treated control animals.

[12] = tested on: Mouse bone marrow-derived mast cells; assay: Ribavirin: mast cell β-hexosaminidase release

T1 sequence (P56658 whole entry): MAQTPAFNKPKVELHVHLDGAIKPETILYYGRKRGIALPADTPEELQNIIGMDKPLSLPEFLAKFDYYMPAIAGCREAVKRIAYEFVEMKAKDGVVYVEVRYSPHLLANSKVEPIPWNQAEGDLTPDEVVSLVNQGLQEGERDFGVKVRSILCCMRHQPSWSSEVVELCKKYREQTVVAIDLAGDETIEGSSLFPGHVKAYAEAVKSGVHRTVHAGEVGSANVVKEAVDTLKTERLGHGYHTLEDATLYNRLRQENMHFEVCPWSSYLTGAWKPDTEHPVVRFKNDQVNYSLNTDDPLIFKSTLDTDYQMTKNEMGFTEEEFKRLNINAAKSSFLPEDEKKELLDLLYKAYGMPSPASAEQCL

CCCCO[C@@H]1[C@H](O)[C@@H](CO)O[C@H]1n1cnc(C(N)=O)c1N [32 (1-262), 5-amino-1-(2-O-n-butyl-β-D-ribofuranosyl)imidazole-4-carboxamide]
IC50 [1]: 175 µM

NC(=O)c1ncn([C@@H]2O[C@H](COP(=O)(O)O)[C@@H](O)[C@H]2O)c1N [AICA ribotide]
AMP deaminase inhibited [2]: 38%

Nc1ncnc2c1ncn2[C@@H]1O[C@H](CO)[C@@H](O)[C@H]1O [Adenosine, 9-β-D-ribofuranosyladenine]
rolling velocity of granulocytes in microvessels [3]: twofold increase

Nc1c(C(=O)NC2CCCC2)ncn1C1OC(CO)C(O)C1O [Compound No. 10 (1-186), 5-Amino-1-beta-D-ribofuranosylimidazole-4-N-(cyclopentyl)carboxamide]
EC50 [4]: 350 µM
effect in a gerbil model of brain ischemia [5]: demonstrated protective effects
melting point: 158 to 160 °C

Nc1c(C(=O)NCc2ccccc2)ncn1[C@@H]1O[C@H](CO)[C@@H](O)[C@H]1O [Compound No. 11 (1-226), 5-Amino-1-beta-D-ribofuranosylimidazole-4-N-(benzyl)carboxamide]
IC50 [6]: 200 µM
Tissue Adenosine Levels (% Increase vs. Saline) ([7]; Expt 1): 53%
Tissue Adenosine Levels (% Increase vs. Saline) ([7]; Expt 2): 45%
effect in a gerbil model of brain ischemia [5]: demonstrated protective effects

NC[C@H]1O[C@@H](n2cnc(C(=O)NCc3ccc(Cl)cc3)c2N)[C@H](O)[C@@H]1O [Compound No. 53 (1-468), 5-Amino-1-(5-amino-5-deoxy-β-D-ribofuranosyl)imidazole-4-N-[(4-chlorophenyl)methyl]carboxamide Hydrochloride]
IC50 ([6]; Cavia porcellus): 70 µM
inhibition at 5 µM ([8]; 5 μM): 34 ± 4%
inhibition at 50 µM ([8]; 50 μM): 58 ± 2%
EC50 [4]: ~100 µM
IC50 [9]: 150 µM
half-life [10]: 5.61 h
bioavailability ([10]; po, 10 mg/kg IV bolus and 20 mg/kg via stomach tube, read-out: Absolute Oral Bioavailability %): 32 ± 11%
Heart Rate ([11]; Baseline): 143 ± 6 beats/min
Mean Arterial Pressure ([11]; Baseline): 86 ± 5 mm Hg
% of NON-ISCHEMIC WALL THICKENING ([11]; Pace # 1 (before infusion), 50 μg/kg/min IV post-pace #1): 49.5 ± 6.5%
% of NON-ISCHEMIC WALL THICKENING ([11]; Pace # 2): 46.7 ± 7.0%
% of NON-ISCHEMIC WALL THICKENING ([11]; Pace # 3): 54.2 ± 9.4 %
% of NON-ISCHEMIC WALL THICKENING ([11]; Pace # 4): 48.1 ± 7.6 %
% of NON-ISCHEMIC WALL THICKENING ([11]; Pace # 5): 47.5 ± 8.2 %
% of NON-ISCHEMIC WALL THICKENING ([11]; Pace # 6): 42.1 ± 7.0 %
Heart Rate, Change from Baseline ([11]; Post Pace Rest Period 1): 1 ± 2 beats/min
Mean Arterial Pressure, Change from Baseline ([11]; Post Pace Rest Period 1): −1 ± 3 mm Hg
Heart Rate, Change from Baseline ([11]; Post Pace Rest Period 2): −2 ± 4 beats/min
Mean Arterial Pressure, Change from Baseline ([11]; Post Pace Rest Period 2): −2 ± 3 mm Hg
Heart Rate, Change from Baseline ([11]; Post Pace Rest Period 3): −1 ± 3 beats/min
Mean Arterial Pressure, Change from Baseline ([11]; Post Pace Rest Period 3): −8 ± 3 mm Hg
Heart Rate, Change from Baseline ([11]; Post Pace Rest Period 4): 2 ± 4 beats/min
Mean Arterial Pressure, Change from Baseline ([11]; Post Pace Rest Period 4): −7 ± 3 mm Hg
Heart Rate, Change from Baseline ([11]; Post Pace Rest Period 5): 1 ± 4 beats/min
Mean Arterial Pressure, Change from Baseline ([11]; Post Pace Rest Period 5): −8 ± 3 mm Hg
Heart Rate, Change from Baseline ([11]; Post Pace Rest Period 6): 2 ± 4 beats/min
Mean Arterial Pressure, Change from Baseline ([11]; Post Pace Rest Period 6): −7 ± 3 mm Hg

NC(=O)c1ncn([C@@H]2O[C@H](COP(=O)(O)O)[C@@H](O)[C@H]2O)n1 [ribavirin monophosphate]
AMP deaminase inhibited [2]: 54%

NC(=O)c1ncn([C@@H]2O[C@H](CO)[C@@H](O)[C@H]2O)n1 [ribavirin, 1-β-D-ribofuranosyl-1H-1,2,4-triazole-3-carboxamide]
mediator release ([12]; 1 μM for six days): inhibits mediator release significantly
β-hexosaminidase release ([12]; 10 μM added at the time of mast cell stimulation): does not affect
β-hexosaminidase release ([12]; three to seven days in 10 μM, washed, A23187 challenge): marked attenuation
